Series [1] concerns LPS-stimulated RAW264.7 cells. Set-up: method as in PMID 31704444. Particulars: at 10 µg/µL; cited from earlier work.
In a further series the target is T1, recombinant human MAO-A (Homo sapiens, UniProt P21397).
T1 construct: purchased Sigma-Aldrich
T1 sequence (P21397 1-527): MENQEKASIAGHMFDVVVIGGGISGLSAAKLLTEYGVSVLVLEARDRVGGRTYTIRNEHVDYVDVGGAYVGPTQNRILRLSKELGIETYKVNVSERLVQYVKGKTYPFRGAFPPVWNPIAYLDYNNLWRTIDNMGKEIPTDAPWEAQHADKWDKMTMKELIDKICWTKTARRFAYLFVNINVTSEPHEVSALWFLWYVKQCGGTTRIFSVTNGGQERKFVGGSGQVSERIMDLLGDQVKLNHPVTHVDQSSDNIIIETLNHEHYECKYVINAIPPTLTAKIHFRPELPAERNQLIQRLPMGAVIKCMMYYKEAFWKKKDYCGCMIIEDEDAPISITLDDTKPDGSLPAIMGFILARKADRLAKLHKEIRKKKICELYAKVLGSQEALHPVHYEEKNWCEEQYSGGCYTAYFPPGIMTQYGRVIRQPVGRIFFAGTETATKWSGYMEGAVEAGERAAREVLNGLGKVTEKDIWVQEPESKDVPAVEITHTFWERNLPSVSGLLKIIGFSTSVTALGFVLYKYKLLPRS
In words: MAO-A inhibition assay (kynuramine). In kind it is biochemical. Particulars: inhibitor 10 µM; read-out: Residual activity at 10 µM (%) MAO-A. On the procedure: (§1) AChE assays were performed as described by Ellman et al.[41] with slight modifications. […] DTNB was used for color development, caused by reaction between it and thiocholine (a product of AChE). For inhibitory assays, compounds were preincubated with AChE for 15 min prior to ATCI and DTNB addition. BChE activity was assayed using the same method, but BTCI was used instead of ATCI.
(§2) Inhibitions of the activities of AChE, BChE, MAO-A, and MAO-B by the 15 compounds were investigated at an inhibitor concentration of 10 µM. IC50 values were also determined. […] The inhibition types and Ki values were determined using Lineweaver–Burk Plots and secondary plots.

On the set-up of series [2]: method as in PMID 31704444. Particulars: up to 10 µg/µL (i.e., ~ 25 mM); cited from earlier work.
In a further series the target is T2, BChE (Equus caballus, UniProt P81908).
T2 construct: BChE (from equine serum); purchased Sigma-Aldrich; host or cells: equine serum
In words: Reversibility of BChE inhibition by dialysis. In kind it is biochemical, equine. On the procedure:
(§3) Inhibitor reversibilities were examined using the dialysis method, using with AChE or BChE, rather than MAO enzymes. […] Dialysis was conducted for 6 h with stirring and two buffer changes. Residual activities before (AU) and after (AD) dialysis were compared to those of non-treated controls, and reversibility types were determined by comparing AD and AU values.
(§4) For recovery experiments, preincubated enzyme mixtures were dialyzed as described in the text.

The next series concerns the target T3, recombinant human MAO-B (Homo sapiens, UniProt P27338).
T3 construct: purchased Sigma-Aldrich
T3 sequence (P27338 1-520): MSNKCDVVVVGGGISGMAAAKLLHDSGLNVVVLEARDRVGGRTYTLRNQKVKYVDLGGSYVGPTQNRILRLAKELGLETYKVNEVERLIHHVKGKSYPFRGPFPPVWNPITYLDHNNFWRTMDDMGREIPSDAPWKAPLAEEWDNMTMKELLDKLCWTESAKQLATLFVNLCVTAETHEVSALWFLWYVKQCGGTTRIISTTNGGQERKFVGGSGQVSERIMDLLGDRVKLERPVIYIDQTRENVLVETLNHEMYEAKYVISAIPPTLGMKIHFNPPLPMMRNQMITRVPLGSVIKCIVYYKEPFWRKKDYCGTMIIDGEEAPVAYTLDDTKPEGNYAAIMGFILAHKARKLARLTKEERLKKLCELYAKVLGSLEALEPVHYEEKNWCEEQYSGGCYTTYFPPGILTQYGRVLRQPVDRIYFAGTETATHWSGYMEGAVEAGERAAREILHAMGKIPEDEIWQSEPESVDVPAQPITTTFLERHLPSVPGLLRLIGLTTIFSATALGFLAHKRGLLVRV
In words: MAO-B inhibition assay (benzylamine). In kind it is biochemical. Particulars: inhibitor 10 µM; read-out: Residual activity at 10 µM (%) MAO-B. How it is done: as §1, §2

The target in series [3] is T4, AChE (Type VI-S; from Electrophorus electricus) (Electrophorus electricus, UniProt O42275).
T4 construct: AChE (Type VI-S; from Electrophorus electricus); purchased Sigma-Aldrich Type VI-S (catalogue number not given)
Put plainly: biochemical. Conditions: for IC50 / remaining activity at 10 µM / Residual activity at 10 µM (%) AChE: 15 min preincubation; for IC50: read-out: IC50 (µM) AChE; for remaining activity at 10 µM: read-out: Residual activity at 10 µM (%) AChE, inhibitor 10 µM; for SI = IC50 of AChE/ IC50 of BChE: selectivity index; for Ki: Lineweaver–Burk and secondary plots, read-out: Ki value for AChE inhibition; for Inhibition type, AChE: Lineweaver–Burk plots; for Residual activity at 10 µM (%) AChE: inhibitor 10 µM. How it is done:
as §1, §2

The target in a further series is T5, BChE (from equine serum) (Equus caballus, UniProt P81908).
T5 construct: BChE (from equine serum); purchased Sigma-Aldrich; host or cells: equine serum
In words: biochemical. Conditions: for IC50: 15 min preincubation, read-out: IC50 (µM) BChE. On the procedure:
as §1, §2

The target of another series is T6, AChE (Electrophorus electricus, UniProt O42275).
T6 construct: AChE (Type VI-S; from Electrophorus electricus); purchased Sigma-Aldrich Type VI-S (catalogue number not given)
In words: Reversibility of AChE inhibition by dialysis. The series is classed as biochemical. Particulars: for Reversibility of AChE inhibition: dialysis method; for Residual AChE activity before dialysis (AU) / Residual AChE activity after dialysis (AD): inhibitor ~ 2 × IC50: PJ13, 20 µM, PJ15, 20 µM, tacrine, 0.54 µM; for Residual AChE activity before dialysis (AU): 30 min preincubation; for Residual AChE activity after dialysis (AD): dialysis 6 h. How it is done:
as §3, §4

Results on three compounds are retold here after paper PMC7730441, “Acetylcholinesterase and butyrylcholinesterase inhibitory activities of khellactone coumarin derivatives isolated from Peucedanum japonicum Thurnberg” (Scientific Reports, 2020).

One may read the IC50 as the point on the concentration scale where inhibition reaches its midpoint. The Ki is a dissociation constant, usually derived from enzyme kinetics or from competition with a known ligand.

Where “and” joins values, the source holds several entries; their conditions need not be identical. Equal values may be shown once.

T5 sequence (P81908 whole entry): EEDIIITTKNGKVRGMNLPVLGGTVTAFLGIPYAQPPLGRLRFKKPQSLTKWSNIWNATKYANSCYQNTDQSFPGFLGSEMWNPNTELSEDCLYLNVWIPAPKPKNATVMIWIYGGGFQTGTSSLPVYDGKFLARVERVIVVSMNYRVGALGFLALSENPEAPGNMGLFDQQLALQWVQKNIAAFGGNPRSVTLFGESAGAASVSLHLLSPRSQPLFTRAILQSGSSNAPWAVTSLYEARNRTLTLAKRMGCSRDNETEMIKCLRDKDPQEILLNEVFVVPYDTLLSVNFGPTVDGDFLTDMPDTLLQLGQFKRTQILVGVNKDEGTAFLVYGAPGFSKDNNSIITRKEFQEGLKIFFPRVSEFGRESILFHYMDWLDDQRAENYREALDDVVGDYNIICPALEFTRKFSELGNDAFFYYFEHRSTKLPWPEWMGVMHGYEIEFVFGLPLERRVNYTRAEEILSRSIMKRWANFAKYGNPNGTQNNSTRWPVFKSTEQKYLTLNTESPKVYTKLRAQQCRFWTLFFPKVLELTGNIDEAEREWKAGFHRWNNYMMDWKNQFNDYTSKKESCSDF
T2 sequence (P81908 whole entry): as above
T6 sequence (O42275 24-633): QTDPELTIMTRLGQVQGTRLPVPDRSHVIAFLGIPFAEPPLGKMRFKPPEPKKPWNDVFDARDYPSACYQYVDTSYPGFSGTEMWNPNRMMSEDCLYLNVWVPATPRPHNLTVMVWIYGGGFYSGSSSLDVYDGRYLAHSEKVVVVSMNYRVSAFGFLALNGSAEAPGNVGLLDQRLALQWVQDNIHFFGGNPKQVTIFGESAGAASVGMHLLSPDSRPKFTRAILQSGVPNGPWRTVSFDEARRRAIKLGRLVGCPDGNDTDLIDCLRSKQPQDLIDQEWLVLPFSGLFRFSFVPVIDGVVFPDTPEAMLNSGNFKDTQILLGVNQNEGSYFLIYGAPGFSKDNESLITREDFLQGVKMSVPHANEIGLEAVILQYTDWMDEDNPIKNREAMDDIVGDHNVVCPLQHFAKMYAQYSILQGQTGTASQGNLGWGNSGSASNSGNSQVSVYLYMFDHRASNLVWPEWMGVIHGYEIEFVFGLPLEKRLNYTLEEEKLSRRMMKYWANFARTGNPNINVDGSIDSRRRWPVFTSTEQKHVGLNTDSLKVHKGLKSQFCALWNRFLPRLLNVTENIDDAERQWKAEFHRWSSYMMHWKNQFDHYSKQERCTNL
T4 sequence (O42275 24-633): as above

With `C/C=C(/C)C(=O)O[C@@H]1c2c(ccc3ccc(=O)oc23)OC(C)(C)[C@@H]1OC(=O)C=C(C)C` [PJ5, senecioyl-4′-angeloyl-khellactone], the Anti-inflammatory effects result in series [1] was “potent”. In addition, the remaining activity at 10 µM on recombinant human MAO-A came out at 84.7 ± 9.3%; on recombinant human MAO-B it was 96 ± 0.52%; in series [3], 96 ± 2.83%. Besides, the Toxicity result in series [2] is “non-toxic”. The “Reversibility of BChE inhibition” value on BChE (dialysis method) is “reversible”. The “Residual BChE activity before dialysis (AU)” value at BChE (inhibitor ~ 2 × IC50: PJ5, 14 µM, tacrine, 0.54 µM, 30 min preincubation) amounted to 41.2%. The “Residual BChE activity after dialysis (AD)” value on BChE (inhibitor ~ 2 × IC50: PJ5, 14 µM, tacrine, 0.54 µM, dialysis 6 h) stood at 86.8%. Further, the IC50 in series [3] is greater than 40 µM; on BChE (from equine serum) it was 7.22 µM and 7.2 µM. Further, in series [3], the “SI = IC50 of AChE/ IC50 of BChE” value is greater than 5.54. Besides, the Ki on BChE (from equine serum) (Lineweaver–Burk and secondary plots, read-out: Ki value for BChE inhibition) is 4.16 µM. Besides, at BChE (from equine serum) (Lineweaver–Burk plots), the “Inhibition type, BChE” value was “mixed-type”.

As for `CCC(C)C(=O)O[C@@H]1c2c(ccc3ccc(=O)oc23)OC(C)(C)[C@@H]1OC(=O)CC(C)C` (some centres unmarked) [PJ15, 3′-isovaleryl-4′-(2-methylbutyroyl)khellactone], the Anti-inflammatory effects entry in series [1] is listed as “potent”. On AChE, the “Reversibility of AChE inhibition” value is “reversible”, the “Residual AChE activity before dialysis (AU)” value was 32.8% and the “Residual AChE activity after dialysis (AD)” value came to 68.7%. Moreover, the remaining activity at 10 µM on recombinant human MAO-A worked out at 76.9 ± 4.2%. Moreover, the Toxicity entry in series [2] is “non-toxic”. In addition, on recombinant human MAO-B, the remaining activity at 10 µM was determined as 73.3 ± 7.21%. Further, in series [3], the IC50 is 10 ± 0.48 µM; the Ki amounted to 10.4 µM; the “Inhibition type, AChE” value is “mixed-type”; the “Residual activity at 10 µM (%) AChE” value stood at 50.0 ± 2.82%. In series [3], the remaining activity at 10 µM is less than 50% and the “SI = IC50 of AChE/ IC50 of BChE” value is recorded as less than 0.25. Moreover, on BChE (from equine serum), the 50% inhibitory concentration (IC50) is greater than 40 µM.

`C/C=C(/C)C(=O)O[C@@H]1[C@H](OC(=O)C(C)CC)c2c(ccc3ccc(=O)oc23)OC1(C)C` (some centres unmarked) [PJ13, 3′-angeloyl-4′-(2-methylbutyryl)khellactone]: in series [1], the Anti-inflammatory effects entry is recorded as “potent”. On AChE, the “Reversibility of AChE inhibition” value was “reversible”, the “Residual AChE activity before dialysis (AU)” value is recorded as 34.7% and the “Residual AChE activity after dialysis (AD)” value is 72.3%. The remaining activity at 10 µM at recombinant human MAO-A worked out at 88.5 ± 5.41%. The Toxicity entry in series [2] was “non-toxic”. Moreover, the remaining activity at 10 µM on recombinant human MAO-B was found to be 64.6 ± 8.82%. Moreover, in series [3], the IC50 was 9.28 ± 0.094 µM; the Ki amounted to 5.98 µM; the “Inhibition type, AChE” value is “mixed-type”; the “Residual activity at 10 µM (%) AChE” value turned out to be 48.0 ± 9.40%. In series [3], the remaining activity at 10 µM is less than 50% and the “SI = IC50 of AChE/ IC50 of BChE” value is recorded as less than 0.23. For the same compound, on BChE (from equine serum), the IC50 is greater than 40 µM.
